Measurements reported in patent publication US6432969B1, “N-(substituted glycyl)-2 cyanopyrrolidines, pharmaceutical compositions containing them and their use in inhibiting dipeptidyl peptidase-IV” (Novartis AG, priority 2000, dated 2002).

Tests used:
[1] = target: T1, DPP-IV activity in rat plasma (Rattus norvegicus, UniProt P14740); test: Rat plasma DPP-IV assay; assay type: biochemical; conditions: substrate H-Gly-Pro-AMC
T1 construct: from tissue; host or cells: rat plasma
Description: (§1) Briefly, 5 μl of plasma are added to 96-well flat-bottom micortiter plates (Falcon), followed by the addition of 5 μl of 80 mM MgCl2 in incubation buffer (25 mMHEPES, 140 mM NaCl, 1% RIA-grade BSA, pH 7.8). After a 60 min. incubation at room temperature, the reaction is initiated by the addition of 10 μl of incubation buffer containing 0.1 mM substrate (H-Glycine-Proline-AMC; AMC is 7-amino 4-methylcoumarin). The plates are covered with aluminum foil (or kept in the dark) and incubated at room temperature for 20 min. […] A fluorescence-concentration curve of free AMC is generated using 0-50 μM solutions of AMC in assay buffer. The curve generated is linear and is used for interpolation of substrate consumption (catalytic activity in nmoles substrate cleaved/min). As with the previous assay, the potency of the test compounds as DPP-IV inhibitors, expressed as IC50, is calculated from 8-point, dose-response curves using a 4 parameter logistic function.

[2] = target: T2, DPP-IV activity in human plasma (Homo sapiens, UniProt P27487); test: Human plasma DPP-IV assay; assay type: biochemical; conditions: substrate H-Gly-Pro-AMC
T2 construct: from tissue; host or cells: human plasma
T2 sequence (P27487 39-766 limits assumed): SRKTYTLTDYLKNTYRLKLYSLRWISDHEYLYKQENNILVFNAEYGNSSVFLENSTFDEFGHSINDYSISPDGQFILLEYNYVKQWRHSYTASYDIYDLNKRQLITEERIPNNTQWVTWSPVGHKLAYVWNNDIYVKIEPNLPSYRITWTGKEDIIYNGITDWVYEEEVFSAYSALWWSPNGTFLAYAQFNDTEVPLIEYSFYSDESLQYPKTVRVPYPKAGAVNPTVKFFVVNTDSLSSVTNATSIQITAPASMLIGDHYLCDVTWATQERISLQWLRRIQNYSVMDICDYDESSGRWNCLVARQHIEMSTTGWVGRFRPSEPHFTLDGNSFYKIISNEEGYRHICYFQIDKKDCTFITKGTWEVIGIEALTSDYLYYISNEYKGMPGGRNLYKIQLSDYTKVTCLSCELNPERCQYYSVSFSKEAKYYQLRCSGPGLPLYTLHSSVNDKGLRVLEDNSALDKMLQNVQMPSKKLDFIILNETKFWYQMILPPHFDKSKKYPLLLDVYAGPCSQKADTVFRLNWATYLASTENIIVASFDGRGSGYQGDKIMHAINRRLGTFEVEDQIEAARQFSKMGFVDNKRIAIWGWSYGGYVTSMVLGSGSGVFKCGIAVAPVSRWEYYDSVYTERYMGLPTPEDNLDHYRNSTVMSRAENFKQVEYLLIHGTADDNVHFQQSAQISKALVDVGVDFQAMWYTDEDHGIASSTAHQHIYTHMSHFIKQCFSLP
Description: as §1

[3] = target: T3, DPP-IV activity from human colonic carcinoma cell (Caco-2) extracts (Homo sapiens, UniProt P27487); test: Caco-2 DPP-IV Assay; assay type: biochemical; conditions: Caco-2 cell extract, substrate H-Ala-Pro-pNA, 8-point dose-response
T3 construct: Cell extract is prepared from cells solubilized in 10 mM Tris HCl; host or cells: Caco-2, differentiated to induce DPP-IV expression
T3 sequence (P27487 whole entry): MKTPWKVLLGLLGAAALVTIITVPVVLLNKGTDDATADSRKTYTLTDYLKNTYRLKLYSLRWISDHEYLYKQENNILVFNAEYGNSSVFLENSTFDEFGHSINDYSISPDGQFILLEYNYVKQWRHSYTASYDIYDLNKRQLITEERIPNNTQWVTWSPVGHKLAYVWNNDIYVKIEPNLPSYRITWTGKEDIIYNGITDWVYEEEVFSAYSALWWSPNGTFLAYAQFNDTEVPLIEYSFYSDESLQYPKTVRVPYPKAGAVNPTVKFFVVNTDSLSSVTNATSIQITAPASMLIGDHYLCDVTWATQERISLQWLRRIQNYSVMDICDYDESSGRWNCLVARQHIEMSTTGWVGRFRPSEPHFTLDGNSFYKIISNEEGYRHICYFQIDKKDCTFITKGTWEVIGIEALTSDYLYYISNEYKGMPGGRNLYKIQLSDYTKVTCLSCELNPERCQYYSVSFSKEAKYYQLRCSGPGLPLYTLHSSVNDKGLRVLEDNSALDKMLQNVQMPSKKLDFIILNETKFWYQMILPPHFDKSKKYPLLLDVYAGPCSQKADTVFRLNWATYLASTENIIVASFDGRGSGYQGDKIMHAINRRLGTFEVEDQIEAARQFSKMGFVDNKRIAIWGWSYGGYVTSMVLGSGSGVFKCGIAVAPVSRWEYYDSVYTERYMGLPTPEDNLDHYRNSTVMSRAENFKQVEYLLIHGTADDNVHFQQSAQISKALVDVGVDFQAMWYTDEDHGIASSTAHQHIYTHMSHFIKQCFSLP
Description: The human colonic carcinoma cell line Caco-2 was obtained from the American Type Culture Collection (ATCC HTB 37). Differentiation of the cells to induce DPP-IV expression was accomplished as described by Reisher, et al. in an article entitled “Increased expression of intestinal cell line Caco-2” in Proc. Natl. Acad. Sci., Vol. 90, pgs. […] Cell extract is prepared from cells solubilized in 10 mM Tris HCl, 0.15 M NaCl, 0.04 t.i.u.aprotinin, 0.5% nonidet-P40, pH 8.0, which is centrifuged at 35,000 g for 30 min. at 4° C. to remove cell debris. The assay is conducted by adding 20 μg solubilized Caco-2 protein, diluted to a final volume of 125 μl in assay buffer (25 mM Tris HCl pH 7.4, 140 mM NaCl, 10 mM KCl, 1% bovine serum albumin) to microtiter plate wells. After a 60 min. incubation at room temperature, the reaction is initiated by adding 25 μl of 1 mM substrate (H-Alanine-Proline-pNA; pNA is p-nitroaniline). […] A standard curve of free p-nitroaniline is generated using 0-500 μM solutions of free pNA in assay buffer. The curve generated is linear and is used for interpolation of substrate consumption (catalytic activity in nmoles substrate cleaved/min).
The potency of the test compounds as DPP-IV inhibitors, expressed as IC50, is calculated from 8-point, dose-response curves using a 4-parameter logistic function.

T1 sequence (P14740 38-767 limits assumed): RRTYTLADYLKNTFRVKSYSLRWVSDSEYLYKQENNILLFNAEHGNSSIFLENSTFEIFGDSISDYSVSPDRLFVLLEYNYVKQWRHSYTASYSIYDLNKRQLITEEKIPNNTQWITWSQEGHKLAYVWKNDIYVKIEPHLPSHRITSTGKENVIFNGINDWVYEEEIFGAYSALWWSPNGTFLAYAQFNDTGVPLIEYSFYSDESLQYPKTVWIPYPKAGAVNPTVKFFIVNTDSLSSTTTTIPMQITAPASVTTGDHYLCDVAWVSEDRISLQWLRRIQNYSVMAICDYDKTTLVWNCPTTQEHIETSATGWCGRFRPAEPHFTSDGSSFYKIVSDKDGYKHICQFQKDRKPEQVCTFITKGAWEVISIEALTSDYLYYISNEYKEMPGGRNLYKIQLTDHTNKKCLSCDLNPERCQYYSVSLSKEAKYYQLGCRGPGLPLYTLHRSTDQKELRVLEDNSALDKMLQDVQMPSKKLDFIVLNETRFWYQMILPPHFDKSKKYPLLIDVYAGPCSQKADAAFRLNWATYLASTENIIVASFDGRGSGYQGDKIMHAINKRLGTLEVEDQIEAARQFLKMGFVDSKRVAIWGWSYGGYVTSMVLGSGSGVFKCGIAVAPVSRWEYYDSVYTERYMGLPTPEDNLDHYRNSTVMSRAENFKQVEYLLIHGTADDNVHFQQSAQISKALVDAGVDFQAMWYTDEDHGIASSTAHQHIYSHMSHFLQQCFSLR

| Structure (SMILES) | IC50 [1] | IC50 [2] | IC50 [3] | melting point |
| --- | --- | --- | --- | --- |
| CC(C)(CNc1ncccc1Cl)NCC(=O)N1CCC[C@H]1C#N [Ex. 2D, 1-[[[2-[(3-chloro-2-pyridinyl)amino]-1,1-dimethylethyl]amino]acetyl]-2-cyano-(S)-pyrrolidine] | 71 nM | 93 nM | 44 nM |  |
| CCCCCC12CCC(NCC(=O)N3CCC[C@H]3C#N)(CC1)CC2 [Ex. 2DD, 1-[[(4-pentylbicyclo[2.2.2]oct-1-yl)amino]acetyl]-2-cyano-(S)-pyrrolidine] | 38 nM | 66 nM | 156 nM |  |
| CC(C)(CNc1ncccc1C(F)(F)F)NCC(=O)N1CCC[C@H]1C#N [Ex. 2G, 1-[[[2-[(3-trifluoromethyl-2-pyridinyl)amino]-1,1-dimethylethyl]amino]acetyl]-2-cyano-(S)-pyrrolidine] | 111 nM |  |  |  |
| CC(C)N(C(=O)NCC(C)(C)NCC(=O)N1CCC[C@H]1C#N)C(C)C [Ex. 2J, 1-[[[2-[[(diisopropylamino)carbonyl]amino]-1,1-dimethylethyl]amino]acetyl]-2-cyano-(S)-pyrrolidine] | 49 nM | 421 nM | 41 nM |  |
| CC(C)(CNC(=O)Nc1ccc(Cl)cc1)NCC(=O)N1CCC[C@H]1C#N [Ex. 2K, 1-[[[2-[[[(4-chlorophenyl)amino]carbonyl]amino]-1,1-dimethylethyl]amino]acetyl]-2-cyano-(S)-pyrrolidine] | 38 nM | 305 nM | 56 nM |  |
| N#C[C@@H]1CCCN1C(=O)CNC1CCN(c2nc(-c3ccc(Cl)cc3)cs2)CC1 [Ex. 2LL] | 123 nM | 649 nM | 61 nM |  |
| COc1ccc(-c2csc(N3CCC(NCC(=O)N4CCC[C@H]4C#N)CC3)n2)cc1 [Ex. 2MM] | 58 nM | 71 nM | 22 nM |  |
| N#C[C@@H]1CCCN1C(=O)CN[C@H]1CC[C@H](NS(=O)(=O)c2ccc(Cl)cc2)CC1 [Ex. 2Q, 1-[[[[4-[(4-chlorophenyl)sulfonyl]amino]cyclohexyl]amino]acetyl]-2-cyano-(S)-pyrrolidine] | 38 nM | 38 nM | 30 nM |  |
| N#C[C@@H]1CCCN1C(=O)CN[C@H]1CC[C@H](NC(=O)c2ccc(Cl)cc2)CC1 [Ex. 2T, 1-[[[4-[(4-chlorobenzoyl)amino]cyclohexyl]amino]acetyl]-2-cyano-, (S)-pyrrolidine] | 37 nM | 26 nM | 31 nM |  |
| N#C[C@@H]1CCCN1C(=O)CN[C@H]1CC[C@H](NS(=O)(=O)c2ccc(C(F)(F)F)cc2)CC1 [Ex. 2Z, 1-[[[4-[[[(4-trifluoromethyl)phenyl]sulfonyl]amino]cyclohexyl]amino]acetyl]-2-cyano-(S)-pyrrolidine] | 88 nM | 122 nM | 66 nM |  |
| N#C[C@@H]1CCCN1C(=O)CNC1CCN(S(=O)(=O)c2ccc(C(F)(F)F)cc2)CC1 [Ex. 4C] | 48 nM | 68 nM | 83 nM |  |
| N#C[C@@H]1CCCN1C(=O)CNC1CCN(S(=O)(=O)c2ccccc2)CC1 [Ex. 4D, 1-[[(1-phenylsulfonyl-4-piperidinyl)amino]acetyl]-2-cyano-(S)-pyrrolidine] | 59 nM | 104 nM | 114 nM |  |

More lines, in order of falling IC50 [1], values ahead:

| IC50 [1] | IC50 [2] | IC50 [3] | melting point | Structure (SMILES) |
| --- | --- | --- | --- | --- |
| 37 nM | 46 nM | 45 nM |  | CC(C)(CNc1ncc(Cl)cc1Cl)NCC(=O)N1CCC[C@H]1C#N [Ex. 2F, 1-[[[2-[(3,5-dichloro-2-pyridinyl)amino]-1,1-dimethylethyl]amino]acetyl]-2-cyano-(S)-pyrrolidine] |
| 31 nM | 73 nM | 80 nM |  | CC(C)(CNC(=O)c1ccc(Cl)cc1)NCC(=O)N1CCC[C@H]1C#N [Ex. 2I, 1-[[[2-[(4-chlorobenzoyl)amino]-1,1-dimethylethyl]amino]acetyl]-2-cyano-(S)-pyrrolidine] |
| 31 nM | 77 nM | 35 nM |  | N#C[C@@H]1CCCN1C(=O)CNC1CCN(C(=O)c2ccc(Cl)cc2)CC1 [Ex. 4B] |
| 25 nM | 50 nM | 99 nM | 40 to 42 °C | Cc1ccc(C(=O)NCC(C)(C)NCC(=O)N2CCC[C@H]2C#N)cc1 [Ex. 2C, 1-[[[2-[(4-methylbenzoyl)amino]-1,1-dimethylethyl]amino]acetyl]-2-cyano-(S)pyrrolidine] |
| 19 nM | 27 nM | 27 nM | 38 to 40 °C | CC(C)(CNc1cc(C(F)(F)F)ccn1)NCC(=O)N1CCC[C@H]1C#N [Ex. 2E, 1-[[[2-[(4-trifluoromethyl-2-pyridinyl)amino]-1,1-dimethylethyl]amino]acetyl]-2-cyano-(S)-pyrrolidine] |
| 16 nM | 33 nM | 56 nM |  | N#C[C@@H]1CCCN1C(=O)CN[C@H]1CC[C@H](NS(=O)(=O)c2cccs2)CC1 [Ex. 2AA] |
| 13 nM | 38 nM | 19 nM |  | CC(C)(Cc1ccc(F)cc1)NCC(=O)N1CCC[C@H]1C#N [Ex. 2BB] |
| 12 nM | 37 nM | 44 nM |  | N#C[C@@H]1CCCN1C(=O)CNC1CCN(C(=O)Nc2ccc(Cl)cc2)CC1 [Ex. 2II, 1-[[[1-[[(4-chlorophenyl)amino]carbonyl]-4-piperidinyl]amino]acetyl]-2-cyano-(S)-pyrrolidine] |
| 12 nM | 38 nM | 28 nM | 141 to 143 °C | N#C[C@@H]1CCCN1C(=O)CNC1CCN(c2nc(-c3ccccc3)cs2)CC1 [Ex. 2KK, 1-[[[1-(4-phenyl-2-thiazolyl)-4-piperidinyl]amino]acetyl]-2-cyano-(S)-pyrrolidine] |
| 11 nM | 59 nM | 5 nM |  | CC(C)(CNc1ccc(C(F)(F)F)cn1)NCC(=O)N1CCC[C@H]1C#N [Ex. 2B, 1-[[[2-[(5-trifluoromethyl-2-pyridinyl)amino]-1,1-dimethylethyl]amino]acetyl]-2-cyano-(S)-pyrrolidine] |
| 11 nM | 16 nM | 15 nM |  | N#C[C@@H]1CCCN1C(=O)CN[C@H]1CC[C@H](Nc2ncccc2C(F)(F)F)CC1 [Ex. 2P, 1-[[4-[[(3-trifluoromethyl-2-pyridinyl)amino]cyclohexyl]amino]acetyl]-2-cyano-(S)-pyrrolidine] |
| 10 nM | 20 nM | 22 nM |  | N#C[C@@H]1CCCN1C(=O)CN[C@H]1CC[C@H](Oc2cccc(C(F)(F)F)c2)CC1 [Ex. 2GG, 1-[[[4-[(3-trifluoromethyl)phenoxy]cyclohexyl]amino]acetyl]-2-cyano-(S)-pyrrolidine] |
| 10 nM | 18 nM | 18 nM |  | N#C[C@@H]1CCCN1C(=O)CN[C@H]1CC[C@H](Oc2cccc(Cl)c2)CC1 [Ex. 2HH] |
| 9 nM | 8 nM | 8 nM |  | N#C[C@@H]1CCCN1C(=O)CN[C@H]1CC[C@H](Nc2nccc(C(F)(F)F)n2)CC1 [Ex. 2O, 1-[[[4-[[(4-trifluoromethyl)-2-pyrimidinyl]amino]cyclohexyl]amino]acetyl]-2-cyano-(S)-pyrrolidine] |
| 5 nM | 45 nM | 94 nM |  | CC(C)N(C(=O)N1CCC(NCC(=O)N2CCC[C@H]2C#N)CC1)C(C)C [Ex. 2JJ, 1-[[[1-[(diisopropylamino)carbonyl]-4-piperidinyl]amino]acetyl]-2-cyano-(S)-pyrrolidine] |
| 4 nM | 5 nM | 36 nM |  | N#C[C@@H]1CCCN1C(=O)CN[C@H]1CC[C@H](NC(=O)c2ccc(F)cc2)CC1 [Ex. 5] |
